One data set addresses T1, PLA2 from Rat Platelet (Rattus norvegicus, UniProt P14423).
T1 construct: PLA2 released from thrombin-stimulated rat platelets; from tissue; host or cells: thrombin-stimulated rat platelets (released enzyme, purified on MD 7.1 antibody-coupled Sepharose)
T1 sequence (P14423 22-146): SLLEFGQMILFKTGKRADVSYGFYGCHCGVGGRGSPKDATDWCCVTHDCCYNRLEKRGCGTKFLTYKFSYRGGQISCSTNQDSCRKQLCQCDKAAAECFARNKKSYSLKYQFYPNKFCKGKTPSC
Kind of data set: PLA2 inhibitory activity (release of free fatty acid from [14C]phosphatidylethanolamine). The class given is biochemical. As to conditions: for IC50: 37° C., 20 minutes, pH 7.4; for PLA2 inhibitory effect (in words): statement in words. How it is done:
The amount of Cinatrin (μg/ml) effective for inhibiting 50% of PLA2 activity (IC50) was determined.
PLA2 inhibitory activities of Cinatrin and its derivatives were determined according to the following procedure.
PLA2 released from thrombin-stimulated rat platelets was prepared by immuno-affinity chromatography using antibody MD 7.1-coupled Sepharose (Murakami et. al, J. Biochem 104: 884-888, 1988). The standard assay conditions included, 250 μl of Tris-HCl buffer (100 mM, pH 7.4), CaCl2 (3 mM), 40 μM [^14 C]phosphatidylethanolamine and the enzyme. The reaction was started by the addition of the enzyme solution. Following incubation at 37° C. for 20 minutes, the reaction was terminated by addition of 1.25 ml of Dole's reagent (Dole, V. P. & H, Meinerts, J. Biol. Chem. 235: 2595-2599, 1960). Then released free fatty acid was extracted, and counted in Liquiflour (Du Pont-New England Nuclear) to determine the release of the radioactivity. Inhibition activity is expressed as percent of enzyme control.

Another data set in a line: Solubility. The class given is physicochemical.
[1] abbreviates: Table 5, methyl ester, read-out: PLA2 Inhibitory Activity, IC50, methyl ester (converted).
Where [2] appears, read: Table 5, seco acid (Na), read-out: PLA2 Inhibitory Activity, IC50, seco acid (Na) (converted).
The mark [3] stands for this setting: Table 5, lactone, read-out: PLA2 Inhibitory Activity, IC50, lactone (converted).

Structures can show the parent of a compound that is named as a salt. Where two headings read alike, the source gives them in different places.

As for `C=CCCCCCCCCC1CC2(OC(=O)C(O)C2(O)C(=O)OC)C(=O)O1` (centres unmarked) [Cinatrin A methyl ester], the IC50 on PLA2 from Rat Platelet (setting [1]) is 216 µM.

In the case of `C=CCCCCCCCCC(O)CC(O)(C(=O)O)C(O)(C(=O)O)C(O)C(=O)O` (centres unmarked) [Cinatrin A seco acid (Na salt)], at PLA2 from Rat Platelet (setting [2]), the IC50 is 138 µM.

For the molecule `C=CCCCCCCCCC1CC2(OC(=O)C(O)C2(O)C(=O)O)C(=O)O1` (centres unmarked) [Cinatrin A, 8-(dec-9-ene-1-yl)-3,4-dihydroxy-2,6-dioxo-1,7-dioxaspiro [5,5]-nonane-4-carboxylic acid], the IC50 at PLA2 from Rat Platelet (setting [3]) is 316 µM. For the same molecule, in “Solubility”, the “Solubility in organic solvents” value is given as “soluble” and the Solubility in water result was “soluble”.

For `CCCCCCCCCCC1CC2(OC(=O)C(O)C2(O)C(=O)OC)C(=O)O1` (centres unmarked) [Cinatrin B methyl ester], the IC50 at PLA2 from Rat Platelet (setting [1]) was 215 µM.

Regarding `CCCCCCCCCCC(O)CC(O)(C(=O)O)C(O)(C(=O)O)C(O)C(=O)O` (centres unmarked) [Cinatrin B seco acid (Na salt)], the IC50 at PLA2 from Rat Platelet (setting [2]) is 75.7 µM.

Take `CCCCCCCCCCC1CC2(OC(=O)C(O)C2(O)C(=O)O)C(=O)O1` (centres unmarked) [Cinatrin B, 8-(decane-1-yl)-3,4-dihydroxy-2,6-dioxo-1,7-dioxaspiro[5,5]-nonane-4-carboxylic acid]: on PLA2 from Rat Platelet (setting [3]), the IC50 is 147 µM. Also, the “PLA2 inhibitory effect (in words)” value at PLA2 from Rat Platelet was “particularly effective”. For the same molecule, in the data set “Solubility”, the “Solubility in organic solvents” value is reported as “soluble”.

As for `CCCCCCCCCCCCC1(C(=O)OC)OC(=O)C(O)C1(O)C(=O)OC` (centres unmarked) [Cinatrin C1 methyl ester], the IC50 on PLA2 from Rat Platelet (setting [1]) is 142 µM.

`CCCCCCCCCCCCC(O)(C(=O)O)C(O)(C(=O)O)C(O)C(=O)O` (centres unmarked) [Cinatrin C1 seco acid (Na salt)]: the IC50 on PLA2 from Rat Platelet (setting [2]) was 70.1 µM.

As to `CCCCCCCCCCCCC1(C(=O)O)OC(=O)C(O)C1(O)C(=O)O` (centres unmarked) [Cinatrin C1, 2-dodecyl-3,4-dihydroxy-5-oxo-tetrahydrofuran-2,3-dicarboxylic acid], the IC50 on PLA2 from Rat Platelet (Table 1, lactone form, read-out: IC50, lactone form (Inhibitory Effect on PLA2 from Rat Platelet)) is over 801 µM. In addition, the IC50 on PLA2 from Rat Platelet (setting [3]) was over 801 µM. Besides, the “Change of PLA2 inhibitory activity on conversion of lactone into ester or seco acid form (in words)” value on PLA2 from Rat Platelet (ester or seco acid form versus lactone form) was “becomes more active when it is converted into an ester or seco acid form”. For the same molecule, on PLA2 from Rat Platelet, the “PLA2 inhibitory effect (in words)” value was “moderately active in its lactone form”. For the same molecule, in the data set “Solubility”, the “Solubility in organic solvents” value is “soluble” and the Solubility in water result is listed as “slightly soluble”.

On to `CCCCCCCCCCCC(O)C1C(=O)OC(C(=O)OC)C1(O)C(=O)OC` (centres unmarked) [Cinatrin C2 methyl ester], for which the IC50 on PLA2 from Rat Platelet (setting [1]) was 745 µM.

For `CCCCCCCCCCCC(O)C(C(=O)O)C(O)(C(=O)O)C(O)C(=O)O` (centres unmarked) [Cinatrin C2 seco acid (Na salt)], the IC50 at PLA2 from Rat Platelet (setting [2]) was 44.6 µM.

With `CCCCCCCCCCCC(O)C1C(=O)OC(C(=O)O)C1(O)C(=O)O` (centres unmarked) [Cinatrin C2, 3-hydroxy-4-(1-hydroxydodecyl)-5-oxo-tetrahydrofuran-2,3-dicarboxylic acid], the IC50 at PLA2 from Rat Platelet (setting [3]) was 801 µM. The “Solubility in organic solvents” value in “Solubility” was “soluble”.

Take `CCCCCCCCCCCCC1(O)C(=O)OC(C(=O)OC)C1(O)C(=O)OC` (centres unmarked) [Cinatrin C3 methyl ester]: the IC50 on PLA2 from Rat Platelet (setting [1]) is 133 µM.

For the molecule `CCCCCCCCCCCCC1(O)C(=O)OC(C(=O)O)C1(O)C(=O)O` (centres unmarked) [Cinatrin C3, 4-dodecyl-3,4-dihydroxy-5-oxo-tetrahydrofuran-2,3-dicarboxylic acid], the IC50 at PLA2 from Rat Platelet (setting [3]) is 78.8 µM. At PLA2 from Rat Platelet, the “PLA2 inhibitory effect (in words)” value is listed as “particularly effective”. Moreover, the “Solubility in organic solvents” value in “Solubility” is on record as “soluble”.

What is called IC50 is the concentration that gives 50% inhibition.
